This is an account of results in patent US8940756B2, “Dihydronaphthyridines and related compounds useful as kinase inhibitors for the treatment of proliferative diseases” (Deciphera Pharmaceuticals, Inc., priority 2012, dated 2015).

Test [1] addresses Phospho-KIT (Tyr719) in GIST430 cells (Homo sapiens, UniProt P10721). Kind of test: GIST430 KIT Western Blot. The class given is cell-based. To be noted: 4 hours, read-out: pKIT suppression by western blot analysi GIST430. As to the method:
(§1) GIST48, GIST430, and GIST882 cells were obtained from J. Fletcher (Brigham and Women's Hospital, Boston, Mass.). GIST T1 cells were obtained from B. Rubin (Cleveland Clinic, Cleveland, Ohio) and Professor Takahiro Taguchi (Kochi Medical School, Nankoku, Kochi, Japan). […] GIST430 cells were grown in Ham's F10 medium supplemented with 15% characterized fetal bovine serum (Invitrogen, Carlsbad, Calif.), 30 mg/L bovine pituitary extract (BD Biosciences, San Jose, Calif.), 0.5% Mito+ serum extender (BD Biosciences, San Jose, Calif.), 1 unit/mL penicillin G, 1 μg/ml streptomycin, and 0.29 mg/mL L-glutamine at 37° C., 5% CO2, 95% humidity. GIST T1 cells were grown in DMEM medium supplemented with 10% characterized fetal bovine serum (Invitrogen, Carlsbad, Calif.), 1 unit/mL penicillin G, 1 ng/ml streptomycin, and 0.29 mg/mL L-glutamine at 37° C., 5% CO2, and 95% humidity. Cells were allowed to expand until reaching 70-95% confluence at which point they were subcultured or harvested for assay use.
(§2) One hundred fifty thousand cells were added per well in a 24-well tissue-culture treated plate. Cells were then incubated overnight at 37° C., 5% CO2, 95% humidity. Medium was aspirated, cells were washed with PBS, and serum-free Ham's F10 medium was added. A serial dilution of test compound was added to plates containing cells and plates were incubated for 4 hours at 37° C., 5% CO2, 95% humidity. Cells were washed with PBS, then lysed. Cell lysates were separated by SDS-PAGE and transferred to PVDF. Phospho-KIT (Tyr719) was detected using an antibody from Cell Signaling Technology (Beverly, Mass.), ECL Plus detection reagent (GE Healthcare, Piscataway, N.J.) and a Molecular Devices Storm 840 phosphorimager in fluorescence mode. Blots were stripped and probed for total KIT using an antibody from Santa Cruz Biotech (Santa Cruz, Calif.). IC50 values were calculated using Prism software (Graphpad, San Diego, Calif.).

Test [2] concerns the target Phospho-KIT (Tyr719) in GIST48 cells (Homo sapiens, UniProt P10721). Kind of test: GIST48 KIT Western Blot. The following applies: 4 hours, read-out: pKIT suppression by western blot analysi GIST48. The class given is cell-based. The procedure:
as §1
as §2, with “Two” for “One”, “RPMI1640” for “Ham's F10”

Molecules are shown by their SMILES.

Sequence of Phospho-KIT (Tyr719) in GIST430 cells (P10721 with tags, fused parts or gaps DEL560-576/V654A, form open): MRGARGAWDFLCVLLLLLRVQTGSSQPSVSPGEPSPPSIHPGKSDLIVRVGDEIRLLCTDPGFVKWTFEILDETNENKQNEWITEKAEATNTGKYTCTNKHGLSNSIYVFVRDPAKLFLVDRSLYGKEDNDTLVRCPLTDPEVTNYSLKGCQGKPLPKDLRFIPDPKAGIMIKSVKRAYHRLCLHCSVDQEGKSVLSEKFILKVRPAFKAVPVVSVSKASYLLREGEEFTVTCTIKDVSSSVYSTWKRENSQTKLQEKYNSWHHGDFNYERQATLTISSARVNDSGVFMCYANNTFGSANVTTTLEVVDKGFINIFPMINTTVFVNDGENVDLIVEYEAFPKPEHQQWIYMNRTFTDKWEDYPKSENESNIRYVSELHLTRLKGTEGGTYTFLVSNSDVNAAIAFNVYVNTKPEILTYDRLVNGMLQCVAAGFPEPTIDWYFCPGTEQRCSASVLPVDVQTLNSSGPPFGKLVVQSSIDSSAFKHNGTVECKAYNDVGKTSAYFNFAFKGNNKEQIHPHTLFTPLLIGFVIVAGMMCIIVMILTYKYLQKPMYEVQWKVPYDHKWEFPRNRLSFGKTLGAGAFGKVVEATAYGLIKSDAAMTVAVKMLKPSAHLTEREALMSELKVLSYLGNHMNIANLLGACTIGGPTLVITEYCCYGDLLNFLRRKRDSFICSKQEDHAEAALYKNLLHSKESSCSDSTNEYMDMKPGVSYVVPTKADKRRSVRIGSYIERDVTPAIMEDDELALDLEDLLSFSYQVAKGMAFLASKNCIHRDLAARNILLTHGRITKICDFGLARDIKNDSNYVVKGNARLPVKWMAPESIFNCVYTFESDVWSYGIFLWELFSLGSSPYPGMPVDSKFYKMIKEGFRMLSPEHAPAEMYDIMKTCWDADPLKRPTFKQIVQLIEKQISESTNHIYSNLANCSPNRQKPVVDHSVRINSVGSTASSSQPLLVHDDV
Sequence of Phospho-KIT (Tyr719) in GIST48 cells (P10721 whole entry V560D/D820A, form open): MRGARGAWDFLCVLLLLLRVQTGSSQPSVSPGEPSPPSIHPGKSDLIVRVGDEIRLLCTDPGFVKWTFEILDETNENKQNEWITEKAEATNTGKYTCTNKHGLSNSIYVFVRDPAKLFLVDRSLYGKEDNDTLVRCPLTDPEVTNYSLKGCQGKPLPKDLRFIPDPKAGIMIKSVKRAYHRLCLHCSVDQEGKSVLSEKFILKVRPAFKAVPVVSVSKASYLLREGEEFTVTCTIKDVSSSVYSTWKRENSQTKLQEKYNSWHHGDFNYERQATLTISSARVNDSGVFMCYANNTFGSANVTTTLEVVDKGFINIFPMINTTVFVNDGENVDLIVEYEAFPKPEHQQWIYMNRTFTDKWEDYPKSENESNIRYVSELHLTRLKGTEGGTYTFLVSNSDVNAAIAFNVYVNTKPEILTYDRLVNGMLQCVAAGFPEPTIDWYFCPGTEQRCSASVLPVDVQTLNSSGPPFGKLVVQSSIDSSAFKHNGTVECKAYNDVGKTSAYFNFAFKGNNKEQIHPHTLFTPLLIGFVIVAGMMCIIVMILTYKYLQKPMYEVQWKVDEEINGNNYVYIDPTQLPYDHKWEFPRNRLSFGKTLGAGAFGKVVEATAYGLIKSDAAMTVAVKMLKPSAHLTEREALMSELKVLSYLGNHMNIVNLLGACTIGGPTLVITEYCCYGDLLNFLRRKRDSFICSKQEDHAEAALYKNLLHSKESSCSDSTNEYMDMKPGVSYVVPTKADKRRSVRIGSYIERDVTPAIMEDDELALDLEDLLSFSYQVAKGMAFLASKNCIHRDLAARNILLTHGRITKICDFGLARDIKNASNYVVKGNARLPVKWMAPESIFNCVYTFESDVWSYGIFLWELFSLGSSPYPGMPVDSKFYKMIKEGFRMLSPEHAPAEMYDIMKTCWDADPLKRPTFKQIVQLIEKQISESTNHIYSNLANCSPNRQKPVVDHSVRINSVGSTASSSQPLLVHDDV

Turning to `CCn1c(=O)c(-c2cc(NC(=O)Nc3cccc(F)c3)c(F)cc2C)cc2cnc(N)cc21` [Example 58, 1-(5-(7-amino-1-ethyl-2-oxo-1,2-dihydro-1,6-naphthyridin-3-yl)-2-fluoro-4-methylphenyl)-3-(3-fluorophenyl)urea], the IC50 in test [1] was in the range of 10 to 100 nM; in test [2] it was 100 to 1000 nM.

Turning to `CCn1c(=O)c(-c2cc(NC(=O)Nc3csc4ccccc34)c(F)cc2C)cc2cnc(NC)cc21` [Example 59, 1-(benzo[b]thiophen-3-yl)-3-(5-(1-ethyl-7-(methylamino)-2-oxo-1,2-dihydro-1,6-naphthyridin-3-yl)-2-fluoro-4-methylphenyl)urea], the IC50 in test [1] and in test [2] was 10 to 100 nM in each case.

In the case of `CCn1c(=O)c(-c2cc(NC(=O)Nc3cc(F)cc(F)c3)c(F)cc2C)cc2cnc(NC)cc21` [Example 60, 1-(3,5-difluorophenyl)-3-(5-(1-ethyl-7-(methylamino)-2-oxo-1,2-dihydro-1,6-naphthyridin-3-yl)-2-fluoro-4-methylphenyl)urea], the IC50 in test [1] was 10 to 100 nM; in test [2], > 1000 nM.

Regarding `CCn1c(=O)c(-c2cc(NC(=O)Nc3cc(F)ccc3F)c(F)cc2C)cc2cnc(NC)cc21` [Example 61, 1-(2,5-difluorophenyl)-3-(5-(1-ethyl-7-(methylamino)-2-oxo-1,2-dihydro-1,6-naphthyridin-3-yl)-2-fluoro-4-methylphenyl)urea], the IC50 in test [1] was 10 to 100 nM; in test [2] it was > 1000 nM.

On to `CCn1c(=O)c(-c2cc(NC(=O)Nc3cc(F)cc(F)c3)c(F)cc2F)cc2cnc(NC)cc21` [Example 63], for which the IC50 in test [1] fell in the range of 10 to 100 nM; in test [2] it was 100 to 1000 nM.

For the compound `CCn1c(=O)c(-c2cc(NC(=O)Nc3cc(F)cc(F)c3)c(F)cc2Cl)cc2cnc(NC(C)=O)cc21` [Example 67, N-(3-(2-chloro-5-(3-(3,5-difluorophenyl)ureido)-4-fluorophenyl)-1-ethyl-2-oxo-1,2-dihydro-1,6-naphthyridin-7-yl)acetamide], the IC50 in test [1] and in test [2] was < 10 nM each time.

For the compound `CCn1c(=O)c(-c2cc(NC(=O)Nc3cc(F)ccc3F)c(F)cc2Cl)cc2cnc(NC)cc21` [Example 68, 1-(4-chloro-5-(1-ethyl-7-(methylamino)-2-oxo-1,2-dihydro-1,6-naphthyridin-3-yl)-2-fluorophenyl)-3-(2,5-difluorophenyl)urea], the IC50 in test [1] lay within 10 to 100 nM; in test [2] it was 100 to 1000 nM.

As for `CCn1c(=O)c(-c2cc(NC(=O)Nc3ccccc3)c(F)cc2Cl)cc2cnc(NC(=O)N(C)C)cc21` [Example 70, 3-(3-(2-chloro-4-fluoro-5-(3-phenylureido)phenyl)-1-ethyl-2-oxo-1,2-dihydro-1,6-naphthyridin-7-yl)-1,1-dimethylurea], the IC50 in test [1] was < 10 nM; in test [2], 10 to 100 nM.

`CCn1c(=O)c(-c2cc(NC(=O)Nc3ccccc3)c(F)cc2Cl)cc2cnc(NC(=O)OC)cc21` [Example 73, methyl (3-(2-chloro-4-fluoro-5-(3-phenylureido)phenyl)-1-ethyl-2-oxo-1,2-dihydro-1,6-naphthyridin-7-yl)carbamate]: the IC50 in test [1] and in test [2] was 10 to 100 nM throughout.

In the case of `CNc1cc2c(cn1)cc(-c1cc(NC(=O)Nc3cccc(F)c3)c(F)cc1Cl)c(=O)n2C(C)C` [Example 77, 1-(4-chloro-2-fluoro-5-(1-isopropyl-7-(methylamino)-2-oxo-1,2-dihydro-1,6-naphthyridin-3-yl)phenyl)-3-(3-fluorophenyl)urea], the IC50 in test [1] and in test [2] was 10 to 100 nM in each case.

Turning to `CCn1c(=O)c(-c2cc(NC(=O)Nc3ccccc3)c(F)cc2Cl)cc2cnc(NC(=O)N3CC(O)C3)cc21` [Example 81, N-(3-(2-chloro-4-fluoro-5-(3-phenylureido)phenyl)-1-ethyl-2-oxo-1,2-dihydro-1,6-naphthyridin-7-yl)-3-hydroxyazetidine-1-carboxamide], the IC50 in test [1] and in test [2] was 10 to 100 nM throughout.

Consider `CCn1c(=O)c(-c2cc(NC(=O)Nc3ccccc3)c(F)cc2Cl)cc2cnc(NC(=O)N3CC[C@@H](N(C)C)C3)cc21` [Example 84, (R)—N-(3-(2-chloro-4-fluoro-5-(3-phenylureido)phenyl)-1-ethyl-2-oxo-1,2-dihydro-1,6-naphthyridin-7-yl)-3-(dimethylamino)pyrrolidine-1-carboxamide], for which the IC50 in test [1] and in test [2] was 10 to 100 nM in each case.

As to `CC(=O)Nc1cc2c(cn1)cc(-c1cc(NC(=O)Nc3ccccc3)c(F)cc1Cl)c(=O)n2C(C)C` [Example 86, N-(3-(2-chloro-4-fluoro-5-(3-phenylureido)phenyl)-1-isopropyl-2-oxo-1,2-dihydro-1,6-naphthyridin-7-yl)acetamide], the IC50 in test [1] was 10 to 100 nM; in test [2], < 10 nM.

Regarding `CCn1c(=O)c(-c2cc(NC(=O)Nc3ccc(F)c(CN4CCN(C)CC4)c3)c(F)cc2Cl)cc2cnc(NC)cc21` [Example 87], the figures for the IC50 in test [1] and in test [2] were 100 to 1000 nM and 10 to 100 nM, respectively.

As to `CCn1c(=O)c(-c2cc(NC(=O)Nc3ccccc3)c(F)cc2C)cc2cnc(NC(=O)N(C)C)cc21` [Example 101, 3-(1-ethyl-3-(4-fluoro-2-methyl-5-(3-phenylureido)phenyl)-2-oxo-1,2-dihydro-1,6-naphthyridin-7-yl)-1,1-dimethylurea], the IC50 in test [1] was 10 to 100 nM; in test [2], > 1000 nM.

Take `CCn1c(=O)c(-c2cc(NC(=O)Nc3ccccc3)c(F)cc2Cl)cc2cnc(NC(=O)N3CC(N(C)C)C3)cc21` [Example 102, N-(3-(2-chloro-4-fluoro-5-(3-phenylureido)phenyl)-1-ethyl-2-oxo-1,2-dihydro-1,6-naphthyridin-7-yl)-3-(dimethylamino)azetidine-1-carboxamide]: the IC50 in test [1] and in test [2] was 10 to 100 nM in each case.

For the compound `CCn1c(=O)c(-c2cc(NC(=O)Nc3cc(F)cc(F)c3)c(F)cc2C)cc2cnc(NC(=O)N(C)C)cc21` [Example 108, 3-(3-(5-(3-(3,5-difluorophenyl)ureido)-4-fluoro-2-methylphenyl)-1-ethyl-2-oxo-1,2-dihydro-1,6-naphthyridin-7-yl)-1,1-dimethylurea], the IC50 in test [1] lay in the range of 10 to 100 nM; in test [2], 100 to 1000 nM.
